Reference: patent publication US10150760B2, “Compounds for use in preparing heterocyclic triazole agonists of the APJ receptor” (AMGEN INC., priority 2016, dated 2018)

Molecular target: human APJ receptor (Homo sapiens (Human), UniProt P35414)
Assay: [35S]GTPγS binding assay on membranes from CHO cells stably expressing human APJ receptor
Format: biochemical
Conditions: read-out: Activity hAPJ SPA EC50 IP
How it was run: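 Agonist-driven [35S]GTPγS (0.2 nM) binding was measured over 90 min at room temperature on human APJ-expressing CHO membranes with bead capture, in buffer containing 3 μM GDP, 200 mM NaCl and 5 mM MgCl2 (pH 7.5). Excess unlabelled GTPγS (100 μM) gave nonspecific signal; EC50 from non-linear fits.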

human APJ receptor, sequence (P35414 whole entry): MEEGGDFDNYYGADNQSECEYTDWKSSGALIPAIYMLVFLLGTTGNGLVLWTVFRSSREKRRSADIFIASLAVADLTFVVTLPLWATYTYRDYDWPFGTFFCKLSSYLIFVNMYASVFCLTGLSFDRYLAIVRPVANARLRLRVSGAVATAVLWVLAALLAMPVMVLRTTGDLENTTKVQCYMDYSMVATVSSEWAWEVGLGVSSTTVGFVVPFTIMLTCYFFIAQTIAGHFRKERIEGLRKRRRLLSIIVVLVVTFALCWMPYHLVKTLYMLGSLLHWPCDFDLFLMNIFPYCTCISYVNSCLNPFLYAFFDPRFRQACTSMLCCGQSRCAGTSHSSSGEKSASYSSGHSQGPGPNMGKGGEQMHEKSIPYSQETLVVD

Compound | EC50
COc1cnc([C@@H](C)[C@H](C)S(=O)(=O)Nc2nnc([C@@H]3CC[C@H](C)O3)n2-c2c(OC)cccc2OC)nc1 (mixture of isomers) [Example 249.0, (2S,3R)-N-(4-(2,6-dimethoxyphenyl)-5-((2R,5R)-5-methyltetrahydro-2-furanyl)-4H-1,2,4-triazol-3-yl)-3-(5-methoxy-2-pyrimidinyl)-2-butanesulfonamide and (2S,3R)-N-(4-(2,6-dimethoxyphenyl)-5-((2S,5S)-5-methyltetrahydro-2-furanyl)-4H-1,2,4-triazol-3-yl)-3-(5-methoxy-2-pyrimidinyl)-2-butanesulfonamide] | 540 nM
(2S,3R)-N-(4-(2,6-dimethoxyphenyl)-5-((R)-1,1-dioxidotetrahydrothiophen-3-yl)-4H-1,2,4-triazol-3-yl)-3-(5-methylpyrimidin-2-yl)butane-2-sulfonamide or (2S,3R)-N-(4-(2,6-dimethoxyphenyl)-5-((S)-1,1-dioxidotetrahydrothiophen-3-yl)-4H-1,2,4-triazol-3-yl)-3-(5-methylpyrimidin-2-yl)butane-2-sulfonamide [Example 183.0] | 1060 nM
COc1cccc(OC)c1-n1c(NS(=O)(=O)[C@@H](C)[C@H](C)c2ncc(Cl)cn2)nnc1[C@@H]1COC(C)(C)C1 (single isomer, unassigned) [Example 393.0, (2S,3R)-3-(5-chloro-2-pyrimidinyl)-N-(4-(2,6-dimethoxyphenyl)-5-((3R)-5,5-dimethyltetrahydro-3-furanyl)-4H-1,2,4-triazol-3-yl)-2-butanesulfonamide or (2S,3R)-3-(5-chloro-2-pyrimidinyl)-N-(4-(2,6-dimethoxyphenyl)-5-((3S)-5,5-dimethyltetrahydro-3-furanyl)-4H-1,2,4-triazol-3-yl)-2-butanesulfonamide] | 18 nM
CCc1ccccc1-n1c(NS(=O)(=O)[C@@H](C)[C@H](OC)c2ncc(Cl)cn2)nnc1[C@@H]1CCCO1 [Example 241.0, (1R,2S)-1-(5-chloro-2-pyrimidinyl)-N-(4-(2-ethylphenyl)-5-((2S)-tetrahydro-2-furanyl)-4H-1,2,4-triazol-3-y1)-1-methoxy-2-propanesulfonamide] | 1.4 nM
COc1ncnc(OC)c1-n1c(NS(=O)(=O)[C@@H](C)[C@@H](OC(C)C)c2ncc(C)cn2)nnc1[C@H]1CCCO1 (single isomer, unassigned) [Example 96.0, (1S,2S)-N-(4-(4,6-dimethoxypyrimidm-5-yl)-5-((S)-tetrahydrofuran-2-yl)-4H-1,2,4-triazol-3-yl)-1-isopropoxy-1-(5-methylpyrimidin-2-yl)propane-2-sulfonamide or (1S,2S)-N-(4-(4,6-dimethoxypyrimidin-5-yl)-5-((R)-tetrahydrofuran-2-yl)-4H-1,2,4-triazol-3-yl)-1-isopropoxy-1-(5-methylpyrimidin-2-yl)propane-2-sulfonamide] | 190 nM
COc1ncnc(OC)c1-n1c(NS(=O)(=O)[C@@H](C)[C@H](C)c2ncc(Cl)cn2)nnc1[C@H]1CCOC1 (single isomer, unassigned) [Example 93.0, (2S,3R)-3-(5-chloropyrimidin-2-yl)-N-(4-(4,6-dimethoxypyrimidin-5-yl)-5-((R)-tetrahydrofuran-3-yl)-4H-1,2,4-triazol-3-yl)butane-2-sulfonamide or (2S,3R)-3-(5-chloropyrimidin-2-yl)-N-(4-(4,6-dimethoxypyrimidin-5-yl)-5-((S)-tetrahydrofuran-3-yl)-4H-1,2,4-triazol-3-yl)butane-2-sulfonamide] | 170 nM
COc1cccc(OC)c1-n1c(NS(=O)(=O)[C@@H](C)[C@H](C)c2ncc(C)cn2)nnc1[C@H]1OCC[C@H]1C (single isomer, unassigned) [Example 71.0, (2S,3R)-N-(4-(2,6-dimethoxyphenyl)-5-((2R,3S)-3-methyltetrahydrofuran-2-yl)-4H-1,2,4-triazol-3-yl)-3-(5-methylpyrimidin-2-yl)butane-2-sulfonamide or (2S,3R)-N-(4-(2,6-dimethoxyphenyl)-5-((2S,3R)-3-methyltetrahydrofuran-2-yl)-4H-1,2,4-triazol-3-yl)-3-(5-methylpyrimidin-2-yl)butane-2-sulfonamide] | 450 nM
(1S,2S)-N-(4-(4,6-dimethoxypyrimidin-5-yl)-5-((R)-tetrahydrofuran-3-yl)-4H-1,2,4-triazol-3-yl)-1-(5-fluoropyrimidin-2-yl)-1-isopropoxypropane-2-sulfonamide or (1S,2S)-N-(4-(4,6-dimethoxypyrimidin-5-yl)-5-((S)-tetrahydrofuran-3-yl)-4H-1,2,4-triazol-3-yl)-1-(5-fluoropyrimidin-2-yl)-1-isopropoxypropane-2-sulfonamide [Example 321.0] | 68 nM
COc1ncnc(OC)c1-n1c(NS(=O)(=O)[C@@H](C)[C@H](OC)c2ncc(Cl)cn2)nnc1[C@H]1CCC(C)(C)O1 (single isomer, unassigned) [Example 138.0, (1R,2S)-1-(5-chloropyrimidin-2-yl)-N-(4-(4,6-dimethoxypyrimidin-5-yl)-5-((S)-5,5-dimethyltetrahydrofuran-2-yl)-4H-1,2,4-triazol-3-yl)-1-methoxypropane-2-sulfonamide or (1R,2S)-1-(5-chloropyrimidin-2-yl)-N-(4-(4,6-dimethoxypyrimidin-5-yl)-5-((R)-5,5-dimethyltetrahydrofuran-2-yl)-4H-1,2,4-triazol-3-yl)-1-methoxypropane-2-sulfonamide] | 120 nM
(2S,3R)-3-(5-chloropyrimidin-2-yl)-N-(4-(2,6-dimethoxyphenyl)-5-((R)-3-oxoisoindolin-1-y1)-4H-1,2,4-triazol-3-yl)butane-2-sulfonamide or (2S,3R)-3-(5-chloropyrimidin-2-yl)-N-(4-(2,6-dimethoxyphenyl)-5-((S)-3-oxoisoindolin-1-yl)-4H-1,2,4-triazol-3-yl)butane-2-sulfonamide [Example 235.0] | 830 nM
COc1cccc(OC)c1-n1c(NS(=O)(=O)[C@@H](C)[C@H](C)c2ncc(Cl)cn2)nnc1[C@@H]1CCN(C(=O)OC(C)(C)C)C1 (stereo in doubt) [Example 41.0, tert-butyl (3R)-3-(5-((((1S,2R)-2-(5-chloro-2-pyrimidinyl)-1-methylpropyl)sulfonyl)amino)-4-(2,6-dimethoxyphenyl)-4H-1,2,4-triazol-3-yl)-1-pyrrolidinecarboxylate or tert-butyl (3S)-3-(5-((((1S,2R)-2-(5-chloro-2-pyrimidinyl)-1-methylpropyl)sulfonyl)amino)-4-(2,6-dimethoxyphenyl)-4H-1,2,4-triazol-3-yl)-1-pyrrolidinecarboxylate] | 820 nM
COc1cccc(OC)c1-n1c(NS(=O)(=O)[C@@H](C)[C@H](OC)c2ncc(Cl)cn2)nnc1[C@H]1CCC(C)(C)O1 (single isomer, unassigned) [Example 109.0, (1R,2S)-1-(5-chloropyrimidin-2-yl)-N-(4-(2,6-dimethoxyphenyl)-5-((S)-5,5-dimethyltetrahydrofuran-2-yl)-4H-1,2,4-triazol-3-yl)-1-methoxypropane-2-sulfonamide or (1R,2S)-1-(5-chloropyrimidin-2-yl)-N-(4-(2,6-dimethoxyphenyl)-5-((R)-5,5-dimethyltetrahydrofuran-2-yl)-4H-1,2,4-triazol-3-yl)-1-methoxypropane-2-sulfonamide] | 0.16 nM
